The test addresses T1, Protein ENL (Homo sapiens, UniProt Q03111).
T1 sequence (Q03111 whole entry): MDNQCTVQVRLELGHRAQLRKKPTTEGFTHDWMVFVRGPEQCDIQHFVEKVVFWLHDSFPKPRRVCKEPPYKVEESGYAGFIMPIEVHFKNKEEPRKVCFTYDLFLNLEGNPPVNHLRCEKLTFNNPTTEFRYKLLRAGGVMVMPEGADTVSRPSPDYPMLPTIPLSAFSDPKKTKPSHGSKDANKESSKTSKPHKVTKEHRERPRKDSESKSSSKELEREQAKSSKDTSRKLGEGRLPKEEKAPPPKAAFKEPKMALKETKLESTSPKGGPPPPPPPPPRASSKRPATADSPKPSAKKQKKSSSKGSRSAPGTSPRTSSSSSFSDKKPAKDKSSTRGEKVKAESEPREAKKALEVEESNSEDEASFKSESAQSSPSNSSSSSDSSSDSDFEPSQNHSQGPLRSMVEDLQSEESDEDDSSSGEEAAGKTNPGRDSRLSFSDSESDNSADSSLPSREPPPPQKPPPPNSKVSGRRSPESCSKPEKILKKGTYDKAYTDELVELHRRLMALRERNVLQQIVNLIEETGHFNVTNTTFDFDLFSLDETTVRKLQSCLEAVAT
Put plainly: FRET Assay. The method, then:
Low control (LC) wells received 5 μL of assay buffer instead of ENL protein. […] The response at each compound concentration minus the LC value was converted to percent inhibition of the vehicle control group response (HC-LC).

Usually IC50 stands for the concentration needed to halve the response being measured. Low values mean greater potency, high ones weaker potency. `CN1CCC[C@@H]1c1cc2cnc(NC(=O)c3ccc4c(c3)nnn4-c3ccncc3)cc2[nH]1` [US20250136592, Example 85] gave an IC50 of 56 nM.
Then `CN1CCC[C@@H]1c1nc2cc(NC(=O)c3ccc4c(-c5ccncc5)noc4c3)ccc2[nH]1` [US20250136592, Example 13], with 158 nM; and `CN1CCC[C@@H]1c1nc2ccc(NC(=O)c3ccc4c(C5CC5)nn(C)c4c3)cc2[nH]1` [US20250136592, Example 10], with 98 nM; and `Cc1nccc2cc(C(=O)Nc3cc4[nH]c([C@H]5CCCCN5C)cc4cn3)ccc12` [US20250136592, Example 80], with 18 nM.

The values above are taken from BindingDB's records for patent US20250136592 (Bridge Medicines, 2025).
